Laboratory results reported in the supplement of paper PMC4932681.

Tests used:
ZR-75-1 [1] = test: drug sensitivity score (DSS) (DSS (dimensionless)); higher = more sensitive; extreme values may be limits of the assay; settings: 72 h
Outline: (§1)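 After seeding into 384-well plates with library drugs at five concentrations spanning a 10 000-fold range, breast cancer cell lines and their resistant derivatives were incubated 72 h at 37 °C. Resistant lines received medium with 1 μM of the selecting drug. CellTiter-Glo signal was read on a PHERAstar and scaled to vehicle-only and positive controls. Drug sensitivity score, relative IC50 (the curve midpoint) and top-dose inhibition came from logistic fits run in the Breeze pipeline.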

BT-474 Tam1 [2] = test: as above; settings: 4-OH-tamoxifen in medium 1 µM; 72 h
Outline: as §1

MCF-7 Tam1 [3] = test: as above; settings: 4-OH-tamoxifen in medium 1 µM; 72 h
Outline: as §1

MCF-7 [4] = test: as above; settings: 72 h
Outline: as §1

ZR-75-1 Tam1 [5] = test: as above; settings: 4-OH-tamoxifen in medium 1 µM; 72 h
Outline: as §1

T-47D Tam1 [6] = test: as above; settings: 4-OH-tamoxifen in medium 1 µM; 72 h
Outline: as §1

ZR-75-1 Tam2 [7] = test: as above; settings: 4-OH-tamoxifen in medium 1 µM; 72 h
Outline: as §1

T-47D [8] = test: as above; settings: 72 h
Outline: as §1

T-47D Tam2 [9] = test: as above; settings: 4-OH-tamoxifen in medium 1 µM; 72 h
Outline: as §1

BT-474 [10] = test: as above; settings: 72 h
Outline: as §1

BT-474 Tam2 [11] = test: as above; settings: 4-OH-tamoxifen in medium 1 µM; 72 h
Outline: as §1

ZR-75-1 [12] = test: relative IC50 (midpoint of fitted logistic curve, plateau may be below 50% inhibition; CellTiter-Glo viability); higher = less potent; settings: 72 h
Outline: as §1

BT-474 Tam1 [13] = test: as above; settings: 4-OH-tamoxifen in medium 1 µM; 72 h
Outline: as §1

MCF-7 Tam1 [14] = test: as above; settings: 4-OH-tamoxifen in medium 1 µM; 72 h
Outline: as §1

MCF-7 [15] = test: as above; settings: 72 h
Outline: as §1

ZR-75-1 Tam1 [16] = test: as above; settings: 4-OH-tamoxifen in medium 1 µM; 72 h
Outline: as §1

T-47D Tam1 [17] = test: as above; settings: 4-OH-tamoxifen in medium 1 µM; 72 h
Outline: as §1

ZR-75-1 Tam2 [18] = test: as above; settings: 4-OH-tamoxifen in medium 1 µM; 72 h
Outline: as §1

T-47D [19] = test: as above; settings: 72 h
Outline: as §1

T-47D Tam2 [20] = test: as above; settings: 4-OH-tamoxifen in medium 1 µM; 72 h
Outline: as §1

BT-474 [21] = test: as above; settings: 72 h
Outline: as §1

BT-474 Tam2 [22] = test: as above; settings: 4-OH-tamoxifen in medium 1 µM; 72 h
Outline: as §1

Structure (SMILES)	drug sensitivity score (ZR-75-1 [1]; 4-OH-tamoxifen in medium 0 µM)	drug sensitivity score (ZR-75-1 [1]; 4-OH-tamoxifen in medium 1 µM)	drug sensitivity score (BT-474 Tam1 [2])	drug sensitivity score (MCF-7 Tam1 [3])	drug sensitivity score (MCF-7 [4]; 4-OH-tamoxifen in medium 0 µM)	drug sensitivity score (MCF-7 [4]; 4-OH-tamoxifen in medium 1 µM)	drug sensitivity score (ZR-75-1 Tam1 [5])	drug sensitivity score (T-47D Tam1 [6])	drug sensitivity score (ZR-75-1 Tam2 [7])	drug sensitivity score (T-47D [8]; 4-OH-tamoxifen in medium 0 µM)	drug sensitivity score (T-47D [8]; 4-OH-tamoxifen in medium 1 µM)	drug sensitivity score (T-47D Tam2 [9])	drug sensitivity score (BT-474 [10]; 4-OH-tamoxifen in medium 0 µM)	drug sensitivity score (BT-474 [10]; 4-OH-tamoxifen in medium 1 µM)	drug sensitivity score (BT-474 Tam2 [11])	relative IC50 (ZR-75-1 [12]; 4-OH-tamoxifen in medium 0 µM) [µM]	relative IC50 (ZR-75-1 [12]; 4-OH-tamoxifen in medium 1 µM) [µM]	relative IC50 (BT-474 Tam1 [13]) [µM]	relative IC50 (MCF-7 Tam1 [14]) [µM]	relative IC50 (MCF-7 [15]; 4-OH-tamoxifen in medium 0 µM) [µM]	relative IC50 (ZR-75-1 Tam1 [16]) [µM]	relative IC50 (T-47D Tam1 [17]) [µM]	relative IC50 (ZR-75-1 Tam2 [18]) [µM]	relative IC50 (T-47D [19]; 4-OH-tamoxifen in medium 0 µM) [µM]	relative IC50 (T-47D [19]; 4-OH-tamoxifen in medium 1 µM) [µM]	relative IC50 (T-47D Tam2 [20]) [µM]	relative IC50 (BT-474 [21]; 4-OH-tamoxifen in medium 0 µM) [µM]	relative IC50 (BT-474 [21]; 4-OH-tamoxifen in medium 1 µM) [µM]	relative IC50 (MCF-7 [15]; 4-OH-tamoxifen in medium 1 µM) [µM]	relative IC50 (BT-474 Tam2 [22]) [µM]
CC1(C)NC(=O)N(c2ccc([N+](=O)[O-])c(C(F)(F)F)c2)C1=O [Nilutamide]	0	0	0	0	0	0.145	0	0	0	0	0	0	0	0	0	> 10	> 10	> 10	> 10	> 10	> 10	> 10	> 10	> 10	> 10	> 10	> 10	> 10		
CCN(CC)CCCC(C)Nc1ccnc2cc(Cl)ccc12 (centres undefined) [Chloroquine]	0	0	0.266	0	0	0	0	0	0	0	0	0	0	0	0.999	> 990	> 990		> 990	> 990	> 990	> 990	> 990	> 990	> 990	> 990	> 990	> 990	> 990	
COC1=CC(c2cc3ccccc3[nH]2)=N/C1=C\c1[nH]c(C)cc1C [Obatoclax (GX15-070)]	1.96	2.4	3.09	4.3	2	8.57	1.02	8.83	4.94	3.35	2.73	3.22	6.87	0.367	12.1	2.38	1.71	1.59	1.79	3.66		0.797	1.42	2.22	2.6	1.53	1.27		1.1	0.619
